Source: US20160362408A1 (Bayer Pharma Aktiengesellschaft, priority 2013, published 2016)

Target: T1, recombinant guanylate cyclase reporter cell line (Rattus norvegicus, UniProt P19686+P20595)
T1 construct: expressed in transfected cells
T1 sequence (P19686 1-690): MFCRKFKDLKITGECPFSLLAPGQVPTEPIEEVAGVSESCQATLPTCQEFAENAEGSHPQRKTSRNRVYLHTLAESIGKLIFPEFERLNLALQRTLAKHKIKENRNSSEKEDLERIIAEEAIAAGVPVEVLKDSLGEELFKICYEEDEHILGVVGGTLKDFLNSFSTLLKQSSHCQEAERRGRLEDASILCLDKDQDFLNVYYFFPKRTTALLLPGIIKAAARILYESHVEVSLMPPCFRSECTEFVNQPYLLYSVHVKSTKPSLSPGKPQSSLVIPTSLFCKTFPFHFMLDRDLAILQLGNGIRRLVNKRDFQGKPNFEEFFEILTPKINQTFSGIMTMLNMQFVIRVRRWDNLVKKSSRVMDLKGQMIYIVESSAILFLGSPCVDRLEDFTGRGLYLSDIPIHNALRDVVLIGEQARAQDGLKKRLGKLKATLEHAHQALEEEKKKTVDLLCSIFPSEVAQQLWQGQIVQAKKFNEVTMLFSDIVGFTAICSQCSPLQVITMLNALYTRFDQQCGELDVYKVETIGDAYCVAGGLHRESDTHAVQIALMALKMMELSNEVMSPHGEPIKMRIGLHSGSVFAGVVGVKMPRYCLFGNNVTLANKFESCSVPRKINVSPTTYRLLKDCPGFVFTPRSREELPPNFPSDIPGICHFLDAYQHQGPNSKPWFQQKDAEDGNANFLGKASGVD
T1 sequence (P20595 1-619): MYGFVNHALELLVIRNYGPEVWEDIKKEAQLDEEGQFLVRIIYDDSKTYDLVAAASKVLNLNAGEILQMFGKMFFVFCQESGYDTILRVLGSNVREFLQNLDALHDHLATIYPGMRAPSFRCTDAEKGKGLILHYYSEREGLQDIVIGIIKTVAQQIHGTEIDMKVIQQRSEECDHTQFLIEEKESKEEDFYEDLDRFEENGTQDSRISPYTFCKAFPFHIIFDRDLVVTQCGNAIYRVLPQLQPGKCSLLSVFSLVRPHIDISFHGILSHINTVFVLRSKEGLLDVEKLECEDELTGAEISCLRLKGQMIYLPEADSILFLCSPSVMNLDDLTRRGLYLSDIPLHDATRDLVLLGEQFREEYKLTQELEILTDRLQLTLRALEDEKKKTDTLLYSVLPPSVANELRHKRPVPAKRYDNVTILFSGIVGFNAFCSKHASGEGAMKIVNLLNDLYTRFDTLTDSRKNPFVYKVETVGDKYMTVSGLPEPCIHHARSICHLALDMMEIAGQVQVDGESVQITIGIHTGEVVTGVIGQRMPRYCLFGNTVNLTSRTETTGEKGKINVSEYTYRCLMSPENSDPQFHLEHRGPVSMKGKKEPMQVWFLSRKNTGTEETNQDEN
Assay: Effect on a recombinant guanylate cyclase reporter cell line
Type: cell-based
Details: MEC = minimum effective concentration; in some cases mean values for individual determinations
In short: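 Compounds tested in a recombinant guanylate cyclase reporter cell line per a published method. Potency expressed as minimum effective concentration (MEC), sometimes as mean of individual determinations.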

| MEC | SMILES |
| --- | --- |
| 10 µM | O=C(Nc1cnn(CCO)c1)c1c(C2CC2)nc2c(OCc3c(F)cccc3F)cccn12 [Example 142, 2-Cyclopropyl-8-[(2,6-difluorobenzyl)oxy]-N-[1-(2-hydroxyethyl)-1H-pyrazol-4-yl]imidazo[1,2-a]pyridine-3-carboxamide] |
| 0.3 µM | Cc1nc2c(OCc3c(F)cccc3F)cccn2c1C(=O)Nc1cc(F)cc(F)c1N [Example 143, N-(2-Amino-3,5-difluorophenyl)-8-[(2,6-difluorobenzyl)oxy]-2-methylimidazo[1,2-a]pyridine-3-carboxamide] |
| 3.0 µM | Cc1nc(NC(=O)c2c(C)nc3c(OCc4c(F)cccc4F)cccn23)oc1C [Example 144, 8-[(2,6-difluorobenzyl)oxy]-N-(4,5-dimethyl-1,3-oxazol-2-yl)-2-methylimidazo[1,2-a]pyridine-3-carboxamide] |
| 3.0 µM | Cc1nc2c(OCc3c(F)cccc3F)cccn2c1C(=O)Nc1nccs1 [Example 145, 8-[(2,6-difluorobenzyl)oxy]-2-methyl-N-(1,3-thiazol-2-yl) imidazo[1,2-a]pyridine-3-carboxamide] |
| 3.0 µM | Cc1cnc(NC(=O)c2c(C)nc3c(OCc4c(F)cccc4F)cccn23)s1 [Example 146, 8-[(2,6-difluorobenzyl)oxy]-2-methyl-N-(5-methyl-1,3-thiazol-2-yl)imidazo[1,2-a]pyridine-3-carboxamide] |
| 1.0 µM | Cc1cc(OCCC(C(F)(F)F)C(F)(F)F)c2nc(C)c(C(=O)Nc3c(C)nn(Cc4ccccc4F)c3C)n2c1 [Example 148] |
| 1.0 µM | Cc1nc2c(OCC3CCCCC3)cccn2c1C(=O)Nc1cccc(CCC(=O)O)c1 [Example 150, 3-[3-({[8-(Cyclohexylmethoxy)-2-methylimidazo[1,2-a]pyridin-3-yl]carbonyl}amino)phenyl]propanoic acid] |
| 3.0 µM | Cc1cc(OCC2CC(F)(F)C2)c2nc(C)c(C(=O)Nc3c(C)n[nH]c3C(F)(F)F)n2c1 [Example 151, 8-[(3,3-Difluorocyclobutyl)methoxy]-2,6-dimethyl-N-[3-methyl-5-(trifluoromethyl)-1H-pyrazol-4-yl]imidazo[1,2-a]pyridine-3-carboxamide] |
| 1.0 µM | Cc1cc(OCc2c(F)cccc2F)c2nc(C)c(C(=O)Nc3cccc(S(C)(=O)=O)c3)n2c1 [Example 152, 8-[(2,6-Difluorobenzyl)oxy]-2,6-dimethyl-N-[3-(methylsulphonyl)phenyl]imidazo[1,2-a]pyridine-3-carboxamide] |
| 3.0 µM | Cc1cc(OCc2c(F)cccc2F)c2nc(C)c(C(=O)Nc3cccc(NS(C)(=O)=O)c3)n2c1 [Example 153, 8-[(2,6-Difluorobenzyl)oxy]-2,6-dimethyl-N-{3-[(methylsulphonyl)amino]phenyl}imidazo[1,2-a]pyridine-3-carboxamide] |
| 1.0 µM | Cc1nn(S(C)(=O)=O)c(C)c1NC(=O)c1c(C)nc2c(OCc3c(F)cccc3F)cccn12 [Example 154, 8-[(2,6-Difluorobenzyl)oxy]-N-[3,5-dimethyl-1-(methylsulphonyl)-1H-pyrazol-4-yl]-2-methylimidazo[1,2-a]pyridine-3-carboxamide] |

| SMILES | MEC |
| --- | --- |
| CCn1nc(C)c(NC(=O)c2c(C)nc3c(OCCC(C(F)(F)F)C(F)(F)F)cc(C)cn23)c1C [Example 147, N-(1-Ethyl-3,5-dimethyl-1H-pyrazol-4-yl)-2,6-dimethyl-8-[4,4,4-trifluoro-3-(trifluoromethyl)butoxy]imidazo[1,2-a]pyridine-3-carboxamide] | 3.0 µM |
| Cc1cc(OCCC(C(F)(F)F)C(F)(F)F)c2nc(C)c(C(=O)Nc3c(C)n[nH]c3C(F)(F)F)n2c1 [Example 149, 2,6-dimethyl-N-[3-methyl-5-(trifluoromethyl)-1H-pyrazol-4-yl]-8-[4,4,4-trifluoro-3-(trifluoromethyl)butoxy]imidazo[1,2-a]pyridine-3-carboxamide] | 2.0 µM |
